# Assay results taken from publication PMC9409043, “Serotonin 5-HT6 Receptor Ligands and Butyrylcholinesterase Inhibitors Displaying Antioxidant Activity—Design, Synthesis and Biological Evaluation of Multifunctional Agents against Alzheimer’s Disease” (International Journal of Molecular Sciences, 2022).
# Key:
# [1] = Metal-chelating properties, spectrophotometric; settings: 50 µM ligand and Fe^2+, 250–400 nm
# Text: Metal-chelating properties. The homeostasis of metal ions in the brain is one of the important factors that determine its proper functioning. Disturbed levels of metal ions can lead to overproduction and aggregation of amyloid beta tau proteins and an increase in oxygen radicals production, leading to a degeneration of neurons observed in AD [55]. Additionally, it was observed that iron accumulation in microglia triggers a cascade of events leading to the production of a more sustained inflammatory response with increased reactive oxygen species (ROS) production and increased glycolysis. Adjusting the balance of metal ions by supplementing or chelating may be beneficial in alleviating AD pathology. Thus, we tested the metal-chelating properties of compounds 12–19 against 10 metal ions, recognised as potentially involved in AD. The formation of ligand–ion (Al^3+, Ca^2+, Co^2+, Cu^2+, Fe^2+, Fe^3+, Mg^2+, Ni^2+, Pb^2+ or Zn^2+) complexes was measured spectrophotometrically (250–400 nm with 4 nm interval) at 50 µM concentrations of both, according to the protocol reported previously. Metal-chelating ability was calculated as a shift of absorbance between the absorbance of the ligand–ion mixture and the sum of the absorbance of the ligand and ion separately. […]
# [2] = Metabolic stability in human liver microsomes; type: in vitro ADME
# Protocol: Metabolic stability. […] For detailed results, including UPLC chromatograms and MS spectra, see the Supporting information (Figures S1–S16).
# The metabolic stability was evaluated by incubation of compounds with human liver microsomes (Sigma-Aldrich, St. Louis, MO, USA) in 10 mM Tris–HCl buffer (pH 7.4) at 37 °C for 120 min in the presence of NADPH Regeneration System (Promega, Madison, WI, USA). The percentage of the remaining substrate and the most probable metabolic pathways were estimated by UPLC-MS analyses of the reaction mixtures.
# [3] = Metabolic stability in mouse liver microsomes; type: in vitro ADME; settings: 2 h, pH 7.4
# [4] = target: T1, CYP2D6 (Homo sapiens, UniProt P10635); assay: CYP P450-Glo luminescence assay, CYP2D6; type: in vitro ADME; settings: human, CYP2D6 enzyme in the luminescent P450-Glo assay (Promega); 0.1 µM
# T1 construct: purchased Promega, Madison, WI, USA
# Text: Influence on CYP3A4 and CYP2D6 activity. Possible drug–drug interactions (DDIs) are an important issue for elderly patients, who are usually on multiple medications. They may result, among other things, from the interactions (inhibition or activation) of the cytochrome P450 isoenzymes, especially CYP3A4 and CYP2D6, which play the most significant role in drugs’ biotransformation. Therefore, to predict the potential influence of the studied compounds (14, 16 and 19) on the metabolism of other drugs, we used the CYP450 inhibition luminescence assay (Promega). […]. […] […]. […] […].
# The influence on CYP 3A4 and 2D6 activity was estimated by respective luminescent CYP P450-Glo™ assay (Promega®, Madison, WI, USA). The compounds were tested in the concentration range of 0.1–25 µM. The results were compared to the respective reference CYP inhibitors: ketoconazole and quinidine.
# [5] = system: HepG2 (human hepatocellular carcinoma) cells; assay: Hepatotoxicity, MTS cell viability test; type: cell-based; settings: 72 h
# Protocol: Hepatotoxicity. To further investigate the safety of the compounds, we determined their hepatotoxicity. We used the MTS test that determines cell viability to assess the effect of compounds 14, 16 and 19 on HepG2 (human hepatocellular carcinoma) cells. The compounds were tested at 1, 10, 50 and 100 μM, and cytostatic drug doxorubicin (DX) at 1 μM was used as a reference compound. […]. The HepG2 (ATCC® HB-8065™) cell line was cultivated according to the procedure provided by ATCC. The tested compounds were incubated with cells for 72 h in the following concentrations: 1, 10, 50 and 100 μM. To evaluate the cells’ viability, CellTiter 96® AQueous Non-Radioactive Cell Proliferation Assay (MTS, Promega®, Madison, WI, USA) was performed. The antiproliferative drug doxorubicin was used as a positive control at the concentration of 1 µM. For determination of the IC50 value for compound 14, additional study was performed. The tested compound was incubated with the HepG2 cells for 72 h in the following nine concentrations: 0.001, 0.01, 0.1, 1, 5, 10, 25, 50 and 100 μM. The cells’ viability was estimated by MTS test. IC50 was calculated by Graph Pad Prism 8.0.1 software.
# T1 sequence (P10635 whole entry): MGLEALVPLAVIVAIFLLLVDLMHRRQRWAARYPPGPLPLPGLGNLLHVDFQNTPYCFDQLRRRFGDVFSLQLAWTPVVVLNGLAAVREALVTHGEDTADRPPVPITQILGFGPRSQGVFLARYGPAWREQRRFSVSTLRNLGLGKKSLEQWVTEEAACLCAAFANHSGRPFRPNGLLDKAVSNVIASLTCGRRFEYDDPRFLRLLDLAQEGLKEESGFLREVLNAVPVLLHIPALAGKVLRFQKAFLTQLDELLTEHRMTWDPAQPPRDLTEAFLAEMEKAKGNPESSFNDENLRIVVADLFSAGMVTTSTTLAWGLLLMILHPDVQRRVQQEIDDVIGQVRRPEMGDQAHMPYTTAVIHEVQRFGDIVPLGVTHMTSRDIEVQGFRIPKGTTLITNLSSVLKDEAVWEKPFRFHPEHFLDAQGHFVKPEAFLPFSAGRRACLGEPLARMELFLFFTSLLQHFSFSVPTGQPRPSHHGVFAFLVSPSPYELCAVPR
smiles,measurement,setting,value
"O=S(=O)(c1ccccc1)N1CCc2c(OCCNCC3CCN(Cc4ccccc4)CC3)cccc21 [Compound 15, N-((1-Benzylpiperidin-4-yl)methyl)-2-((1-(phenylsulfonyl)indolin-4-yl)oxy)ethan-1-amine]",Fe^2+ chelating properties (shift of absorbance),[1],Fe^2+ ions chelators
"O=S(=O)(c1ccccc1)n1ccc2c(OCCNCCCC3CCN(Cc4ccccc4)CC3)cccc21 [Compound 14, 3-(1-Benzylpiperidin-4-yl)-N-(2-((1-(phenylsulfonyl)-1H-indol-4-yl)oxy)ethyl)propan-1-amine]",main metabolic pathway,[2],oxidative deamination
same,HLMs % Left,"[2]; human, 2 h, pH 7.4",84.69%
same,MLMs % Left,[3],75.54%
same,inhibition at 0.1 µM,[4],~20%
same,IC50,"[5]; Homo sapiens, HepG2, MTS test",2.16 µM
same,fold HepG2 IC50 over Ki for 5-HT6R and IC50 for hBuChE (safety margin),[5]; human,at least 98 fold
"O=c1[nH]c2c(OCCNCCC3CCN(Cc4ccccc4)CC3)cccc2n1Cc1ccccc1 [Compound 18, 1-Benzyl-4-(2-((2-(1-benzylpiperidin-4-yl)ethyl)amino)ethoxy)-1,3-dihydro-2H-benzo[d]imidazol-2-one]",Fe^2+ chelating properties (shift of absorbance),[1],Fe^2+ ions chelators
